Target: RORC2 ligand binding domain (6-His-RORC2 LBD) (Homo sapiens (Human), UniProt P51449)
Assay: Co-activator recruitment by TR-FRET
Format: biochemical
Details: 6-His-RORC2 LBD / SRC1-2 coactivator peptide, Table 1

RORC2 ligand binding domain (6-His-RORC2 LBD), sequence (P51449 269-508): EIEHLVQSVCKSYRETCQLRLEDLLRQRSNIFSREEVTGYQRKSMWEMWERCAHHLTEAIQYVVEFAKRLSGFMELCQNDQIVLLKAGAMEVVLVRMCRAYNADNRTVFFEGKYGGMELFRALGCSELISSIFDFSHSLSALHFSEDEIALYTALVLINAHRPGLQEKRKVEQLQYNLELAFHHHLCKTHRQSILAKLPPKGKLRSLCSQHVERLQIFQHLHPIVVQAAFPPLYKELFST

CC(C(=O)N1CCC(c2cn(C)c3ncc(NC(=O)c4cccc(C#N)c4)c(C(F)(F)F)c23)CC1)C1CC1 (racemic) [Example 25, Rac-3-cyano-N-(3-(1-(2-cyclopropylpropanoyl)piperidin-4-yl)-1-methyl-4-(trifluoromethyl)-1H-pyrrolo[2,3-b]pyridin-5-yl)benzamide]
IC50: 5.8 nM

Cc1c(NC(=O)c2cccc(C#N)c2)cnc2c1c([C@H]1C[C@H](C)N(C(=O)C3CCCC3)C[C@H]1C)cn2C (relative stereo) [Example 97, rel-3-cyano-N-(3-((2S,4S,5S)-1-(cyclopentanecarbonyl)-2,5-dimethylpiperidin-4-yl)-1,4-dimethyl-1H-pyrrolo[2,3-b]pyridin-5-yl)benzamide]
IC50: 18.6 nM

Cn1cc(C2CCN(C(=O)[C@H]3CCCS3)CC2)c2c(C(F)(F)F)c(NC(=O)c3cccc(C#N)c3)cnc21 (single isomer, unassigned) [Example 28]
IC50: 7.1 nM

Cn1cc(C2CCN(C(=O)[C@@H]3CCCS3)CC2)c2c(C(F)(F)F)c(NC(=O)c3cccc(C#N)c3)cnc21 (single isomer, unassigned) [Example 29]
IC50: 0.9 nM

Cc1c(NC(=O)c2cccc(C#N)c2)cnc2c1c(C1CCN(C(=O)[C@H]3CCC[C@@H]3C)CC1)cn2C (single isomer, unassigned) [Example 46]
IC50: 16.4 nM

Cc1c(NC(=O)c2cccc(C#N)c2)cnc2c1c(C1CCN(C(=O)[C@@H]3CCC[C@H]3C)CC1)cn2C (single isomer, unassigned) [Example 47]
IC50: 10.1 nM

Cc1c(NC(=O)c2cccc(C#N)c2)cnc2c1c(C1CCN(C(=O)[C@@H]3CCC[C@H]3C(C)C)CC1)cn2C (single isomer, unassigned) [Example 49]
IC50: 6.2 nM

Cn1cc(C2CCN(C(=O)C3CCCC3)CC2)c2c(C(F)(F)F)c(NC(=O)c3ccc(F)c(C#N)c3)cnc21 [Example 3, 3-cyano-N-(3-(1-(cyclopentanecarbonyl)piperidin-4-yl)-1-methyl-4-(trifluoromethyl)-1H-pyrrolo[2,3-b]pyridin-5-yl)-4-fluorobenzamide]
IC50: 3.2 nM

CC(C)C(=O)N1CCC(c2cn(C)c3ncc(NC(=O)c4ccc(F)c(C#N)c4)c(C(F)(F)F)c23)CC1 [Example 9, 3-cyano-4-fluoro-N-(3-(1-isobutyrylpiperidin-4-yl)-1-methyl-4-(trifluoromethyl)-1H-pyrrolo[2,3-b]pyridin-5-yl)benzamide]
IC50: 5.4 nM

COc1ccc(C(=O)Nc2cnc3c(c(C4CCN(C(=O)C(C)C)CC4)cn3C)c2C(F)(F)F)cc1Cl [Example 10, 3-chloro-N-(3-(1-isobutyrylpiperidin-4-yl)-1-methyl-4-(trifluoromethyl)-1H-pyrrolo[2,3-b]pyridin-5-yl)-4-methoxybenzamide]
IC50: 3.5 nM

CC(C)C(=O)N1CCC(c2cn(C)c3ncc(NC(=O)c4ccc(Cl)c(C#N)c4)c(C(F)(F)F)c23)CC1 [Example 11, 4-chloro-3-cyano-N-(3-(1-isobutyrylpiperidin-4-yl)-1-methyl-4-(trifluoromethyl)-1H-pyrrolo[2,3-b]pyridin-5-yl)benzamide]
IC50: 1.5 nM

CC(C)C(=O)N1CCC(c2cn(C)c3ncc(NC(=O)c4ccc(F)c(Cl)c4)c(C(F)(F)F)c23)CC1 [Example 12, 3-chloro-4-fluoro-N-(3-(1-isobutyrylpiperidin-4-yl)-1-methyl-4-(trifluoromethyl)-1H-pyrrolo[2,3-b]pyridin-5-yl)benzamide]
IC50: 11.8 nM

COc1cc(Cl)cc(C(=O)Nc2cnc3c(c(C4CCN(C(=O)C(C)C)CC4)cn3C)c2C(F)(F)F)c1 [Example 13, 3-chloro-N-(3-(1-isobutyrylpiperidin-4-yl)-1-methyl-4-(trifluoromethyl)-1H-pyrrolo[2,3-b]pyridin-5-yl)-5-methoxybenzamide]
IC50: 5 nM

Cn1cc(C2CCN(C(=O)[C@H]3C[C@H]4CCCC[C@H]4C3)CC2)c2c(C(F)(F)F)c(NC(=O)c3cccc(C#N)c3)cnc21 [Example 16, 3-cyano-N-(1-methyl-3-(1-((2r,3aR,7aS)-octahydro-1H-indene-2-carbonyl)piperidin-4-yl)-4-(trifluoromethyl)-1H-pyrrolo[2,3-b]pyridin-5-yl)benzamide]
IC50: 10.2 nM

Cn1cc(C2CCN(C(=O)CC3CCC3)CC2)c2c(C(F)(F)F)c(NC(=O)c3cccc(C#N)c3)cnc21 [Example 18, 3-cyano-N-(3-(1-(2-cyclobutylacetyl)piperidin-4-yl)-1-methyl-4-(trifluoromethyl)-1H-pyrrolo[2,3-b]pyridin-5-yl)benzamide]
IC50: 3.8 nM

Cn1cc(C2CCN(C(=O)CC3CCCCC3)CC2)c2c(C(F)(F)F)c(NC(=O)c3cccc(C#N)c3)cnc21 [Example 20, 3-cyano-N-(3-(1-(2-cyclohexylacetyl)piperidin-4-yl)-1-methyl-4-(trifluoromethyl)-1H-pyrrolo[2,3-b]pyridin-5-yl)benzamide]
IC50: 5.2 nM

Cn1cc(C2CCN(C(=O)CC3CC3)CC2)c2c(C(F)(F)F)c(NC(=O)c3cccc(C#N)c3)cnc21 [Example 24, 3-cyano-N-(3-(1-(2-cyclopropylacetyl)piperidin-4-yl)-1-methyl-4-(trifluoromethyl)-1H-pyrrolo[2,3-b]pyridin-5-yl)benzamide]
IC50: 5.8 nM

Cc1c(NC(=O)c2cccc(C#N)c2)cnc2c1c(C1CCN(C(=O)c3cccc4c3CCC4)CC1)cn2C [Example 34, 3-cyano-N-(3-(1-(2,3-dihydro-1H-indene-4-carbonyl)piperidin-4-yl)-1,4-dimethyl-1H-pyrrolo[2,3-b]pyridin-5-yl)benzamide]
IC50: 5.7 nM

Cc1c(NC(=O)c2cccc(C#N)c2)cnc2c1c(C1CCN(C(=O)[C@H](C)C(C)C)CC1)cn2C [Example 37, (R)-3-cyano-N-(3-(1-(2,3-dimethylbutanoyl)piperidin-4-yl)-1,4-dimethyl-1H-pyrrolo[2,3-b]pyridin-5-yl)benzamide]
IC50: 11.6 nM

Cc1c(NC(=O)c2cc(Cl)ccc2F)cnc2c1c(C1CCN(C(=O)[C@H](C)C(C)(C)C)CC1)cn2C [Example 41, (R)-5-chloro-N-(1,4-dimethyl-3-(1-(2,3,3-trimethylbutanoyl)piperidin-4-yl)-1H-pyrrolo[2,3-b]pyridin-5-yl)-2-fluorobenzamide]
IC50: 4.5 nM

COc1cc(Cl)cc(C(=O)Nc2cnc3c(c(C4CCN(C(=O)[C@H](C)C(C)(C)C)CC4)cn3C)c2C)c1 [Example 42, (R)-3-chloro-N-(1,4-dimethyl-3-(1-(2,3,3-trimethylbutanoyl)piperidin-4-yl)-1H-pyrrolo[2,3-b]pyridin-5-yl)-5-methoxybenzamide]
IC50: 7.6 nM

Cc1c(NC(=O)c2cccc(C#N)c2)cnc2c1c(C1CCN(C(=O)[C@H](C)C34CC(C3)C4)CC1)cn2C [Example 50, (R)—N-(3-(1-(2-(bicyclo[1.1.1]pentan-1-yl)propanoyl)piperidin-4-yl)-1,4-dimethyl-1H-pyrrolo[2,3-b]pyridin-5-yl)-3-cyanobenzamide]
IC50: 7.5 nM

Cc1c(NC(=O)c2cccc(C#N)c2)cnc2c1c(C1CCN(C(=O)[C@H](C)C3CCCC3)CC1)cn2C [Example 51, (R)-3-cyano-N-(3-(1-(2-cyclopentylpropanoyl)piperidin-4-yl)-1,4-dimethyl-1H-pyrrolo[2,3-b]pyridin-5-yl)benzamide]
IC50: 6.9 nM

C[C@@H](C(=O)N1CCC(c2cn(C)c3ncc(NC(=O)c4cc(O)cc(C#N)c4)c(C(F)(F)F)c23)CC1)C(C)(C)C [Example 54, (R)-3-cyano-5-hydroxy-N-(1-methyl-4-(trifluoromethyl)-3-(1-(2,3,3-trimethylbutanoyl)piperidin-4-yl)-1H-pyrrolo[2,3-b]pyridin-5-yl)benzamide]
IC50: 4.7 nM

Cn1cc(C2CCN(C(=O)C3CCCC3)CC2)c2c(C(F)(F)F)c(NC(=O)c3cc(O)cc(C#N)c3)cnc21 [Example 55, 3-cyano-N-(3-(1-(cyclopentanecarbonyl)piperidin-4-yl)-1-methyl-4-(trifluoromethyl)-1H-pyrrolo[2,3-b]pyridin-5-yl)-5-hydroxybenzamide]
IC50: 10.6 nM

Cc1c(NC(=O)c2cc(O)cc(C#N)c2)cnc2c1c(C1CCN(C(=O)[C@H](C)C(C)(C)C)CC1)cn2C [Example 56, (R)-3-cyano-N-(1,4-dimethyl-3-(1-(2,3,3-trimethylbutanoyl)piperidin-4-yl)-1H-pyrrolo[2,3-b]pyridin-5-yl)-5-hydroxybenzamide]
IC50: 5.6 nM

Cc1ccc(C(=O)Nc2cnc3c(c([C@@H]4CCN(C(=O)C5CCCC5)C(C)(C)C4)cn3C)c2C)cc1C#N [Example 59, (R)-3-cyano-N-(3-(1-(cyclopentanecarbonyl)-2,2-dimethylpiperidin-4-yl)-1,4-dimethyl-1H-pyrrolo[2,3-b]pyridin-5-yl)-4-methylbenzamide]
IC50: 11.8 nM

Cc1c(NC(=O)c2ccc(F)c(C#N)c2)cnc2c1c([C@@H]1CCN(C(=O)C3CCCC3)C(C)(C)C1)cn2C [Example 61, (R)-3-cyano-N-(3-(1-(cyclopentanecarbonyl)-2,2-dimethylpiperidin-4-yl)-1,4-dimethyl-1H-pyrrolo[2,3-b]pyridin-5-yl)-4-fluorobenzamide]
IC50: 15.2 nM

COc1cc(Cl)cc(C(=O)Nc2cnc3c(c([C@@H]4CCN(C(=O)C(C)C)C(C)(C)C4)cn3C)c2C)c1 [Example 62, (R)-3-chloro-N-(3-(1-isobutyryl-2,2-dimethylpiperidin-4-yl)-1,4-dimethyl-1H-pyrrolo[2,3-b]pyridin-5-yl)-5-methoxybenzamide]
IC50: 9.7 nM

COc1cc(Cl)cc(C(=O)Nc2cnc3c(c([C@@H]4CCN(C(=O)C5CCCC5)C(C)(C)C4)cn3C)c2C)c1 [Example 63, (R)-3-chloro-N-(3-(1-(cyclopentane-carbonyl)-2,2-dimethylpiperidin-4-yl)-1,4-dimethyl-1H-pyrrolo[2,3-b]pyridin-5-yl)-5-methoxybenzamide]
IC50: 12.9 nM

Cc1c(NC(=O)c2cc(O)cc(C#N)c2)cnc2c1c([C@@H]1CCN(C(=O)C3CCCC3)C(C)(C)C1)cn2C [Example 64, (R)-3-cyano-N-(3-(1-(cyclopentanecarbonyl)-2,2-dimethylpiperidin-4-yl)-1,4-dimethyl-1H-pyrrolo[2,3-b]pyridin-5-yl)-5-hydroxybenzamide]
IC50: 41.8 nM

Source: patent US9670201B2, “Methyl- and trifluoromethyl-substituted pyrrolopyridine modulators of RORC2 and methods of use thereof” (Pfizer Inc., priority 2014, dated 2017)
